The numbers were not newly measured in US20120077872A1, “PRESERVATIVE-FREE PHARMACEUTICAL TETRAHYDROLIPSTATIN COMPOSITIONS” (EMS S.A., priority 2009, published 2012), which cites them from elsewhere.

For the data set the following is noted: stored at dry atmosphere.

Consider `CCCCCCCCCCC[C@@H](C[C@@H]1OC(=O)[C@H]1CCCCCC)OC(=O)[C@H](CC(C)C)NC=O` [THL, N-Formyl-L-leucine (1S)-1-[[(2S,3S)-3-hexyl-4-oxo-2-oxetanyl]methyl]dodecyl ester], for which the “temperature at which degradation starts” value was “around 40 °C”.
